Source: ChEMBL document CHEMBL4270599, “Synthesis of a 3'-C-ethynyl-β-d-ribofuranose purine nucleoside library: Discovery of C7-deazapurine analogs as potent antiproliferative nucleosides” (Eur J Med Chem, 2018)

Key:
Format in all cases: functional
[1] = system: CCRF-CEM; test: Cytotoxicity against human CCRF-CEM cells after 48 hrs by SRB assay
[2] = system: MOLT-4; test: Cytotoxicity against human MOLT4 cells after 48 hrs by SRB assay; settings: MOLT-4, 48 h
[3] = system: SR; test: Cytotoxicity against human SR cells after 48 hrs by SRB assay
[4] = system: A549; test: Cytotoxicity against human A549 cells after 48 hrs by SRB assay; settings: A549, 48 h
[5] = system: LOX IMVI; test: Cytotoxicity against human LOXIMVI cells after 48 hrs by SRB assay
[6] = system: OVCAR-5; test: Cytotoxicity against human OVCAR5 cells after 48 hrs by SRB assay; settings: OVCAR-5, 48 h
[7] = system: MDA-MB-231; test: Cytotoxicity against human MDA-MB-231 cells after 48 hrs by SRB assay; settings: MDA-MB-231, 48 h
[8] = system: MDA-MB-468; test: Cytotoxicity against human MDA-MB-468 cells after 48 hrs by SRB assay; settings: MDA-MB-468, 48 h
[9] = system: MOLT-4; test: Growth inhibition of human MOLT4 cells assessed as cell growth at 10^-8 M incubated for 48 hrs by sulforhodamine B assay relative to control; settings: MOLT-4, 48 h, read-out: Activity
[10] = system: HOP-92; test: Growth inhibition of human HOP92 cells assessed as cell growth at 10^-8 M incubated for 48 hrs by sulforhodamine B assay relative to control; settings: HOP-92, 48 h, read-out: Activity
[11] = system: NCI-H23; test: Growth inhibition of human NCI-H23 cells assessed as cell growth at 10^-8 M incubated for 48 hrs by sulforhodamine B assay relative to control; settings: NCI-H23, 48 h, read-out: Activity
[12] = system: SF-268; test: Growth inhibition of human SF268 cells assessed as cell growth at 10^-8 M incubated for 48 hrs by sulforhodamine B assay relative to control; settings: SF-268, 48 h, read-out: Activity
[13] = system: LOX IMVI; test: Growth inhibition of human LOXIMVI cells assessed as cell growth at 10^-8 M incubated for 48 hrs by sulforhodamine B assay relative to control; settings: read-out: Activity
[14] = system: NCI/ADR-RES; test: Growth inhibition of human NCI/ADR-RES cells assessed as cell growth at 10^-8 M incubated for 48 hrs by sulforhodamine B assay relative to control; settings: read-out: Activity
[15] = system: Hs-578T; test: Growth inhibition of human Hs 578T cells assessed as cell growth at 10^-8 M incubated for 48 hrs by sulforhodamine B assay relative to control; settings: read-out: Activity
[16] = system: MOLT-4; test: Growth inhibition of human MOLT4 cells assessed as cell growth at 10^-7 M incubated for 48 hrs by sulforhodamine B assay relative to control; settings: MOLT-4, 48 h, read-out: Activity
[17] = system: HOP-92; test: Growth inhibition of human HOP92 cells assessed as cell growth at 10^-7 M incubated for 48 hrs by sulforhodamine B assay relative to control; settings: HOP-92, 48 h, read-out: Activity
[18] = system: SN12C; test: Growth inhibition of human SN12C cells assessed as cell growth at 10^-7 M incubated for 48 hrs by sulforhodamine B assay relative to control; settings: read-out: Activity
[19] = system: TK-10; test: Growth inhibition of human TK10 cells assessed as cell growth at 10^-7 M incubated for 48 hrs by sulforhodamine B assay relative to control; settings: TK-10, 48 h, read-out: Activity
[20] = system: SR; test: Growth inhibition of human SR cells assessed as cell growth at 10^-6 M incubated for 48 hrs by sulforhodamine B assay relative to control; settings: read-out: Activity
[21] = system: NCI-H322M; test: Growth inhibition of human NCI-H322M cells assessed as cell growth at 10^-6 M incubated for 48 hrs by sulforhodamine B assay relative to control; settings: read-out: Activity
[22] = system: HCT-15; test: Growth inhibition of human HCT15 cells assessed as cell growth at 10^-6 M incubated for 48 hrs by sulforhodamine B assay relative to control; settings: HCT-15, 48 h, read-out: Activity
[23] = system: HT-29; test: Growth inhibition of human HT-29 cells assessed as cell growth at 10^-6 M incubated for 48 hrs by sulforhodamine B assay relative to control; settings: HT-29, 48 h, read-out: Activity
[24] = system: SNB-75; test: Growth inhibition of human SNB75 cells assessed as cell growth at 10^-6 M incubated for 48 hrs by sulforhodamine B assay relative to control; settings: SNB-75, 48 h, read-out: Activity
[25] = system: Malme-3M; test: Growth inhibition of human MALME-3M cells assessed as cell growth at 10^-6 M incubated for 48 hrs by sulforhodamine B assay relative to control; settings: read-out: Activity
[26] = system: HCT-15; test: Growth inhibition of human HCT15 cells assessed as cell growth at 10^-5 M incubated for 48 hrs by sulforhodamine B assay relative to control; settings: HCT-15, 48 h, read-out: Activity
[27] = system: SNB-19; test: Growth inhibition of human SNB19 cells assessed as cell growth at 10^-5 M incubated for 48 hrs by sulforhodamine B assay relative to control; settings: SNB-19, 48 h, read-out: Activity
[28] = system: HCT-116; test: Growth inhibition of human HCT116 cells assessed as cell growth at 10^-4 M incubated for 48 hrs by sulforhodamine B assay relative to control; settings: HCT-116, 48 h, read-out: Activity
[29] = system: IGROV-1; test: Growth inhibition of human IGROV1 cells assessed as cell growth at 10^-4 M incubated for 48 hrs by sulforhodamine B assay relative to control; settings: IGROV-1, 48 h, read-out: Activity
[30] = system: ACHN; test: Growth inhibition of human ACHN cells assessed as cell growth at 10^-4 M incubated for 48 hrs by sulforhodamine B assay relative to control; settings: read-out: Activity
[31] = system: MDA-MB-231; test: Growth inhibition of human MDA-MB-231 cells assessed as cell growth at 10^-4 M incubated for 48 hrs by sulforhodamine B assay relative to control; settings: MDA-MB-231, 48 h, read-out: Activity
[32] = read-out: LC50 (the source's name)
[33] = read-out: pLC50 (the source's name) (converted)

Compound `C#C[C@@]1(O)[C@@H](CO)O[C@@H](n2ccc3c(N)ncnc32)[C@@H]1O` has a CC50 [1, 32] of over 100 µM, a TGI ([1]; read-out: TGI) of over 100 µM and a GI50 ([1]; read-out: pGI50 (converted)) of 2.29 µM. For the same compound, the TGI ([1]; read-out: pTGI) was over 100 µM, the CC50 [2, 32] was over 100 µM and the TGI ([2]; read-out: TGI) was over 100 µM. It also gave a GI50 ([2]; read-out: pGI50 (converted)) of 0.617 µM, a TGI ([2]; read-out: pTGI (converted)) of over 100 µM and a TGI ([3]; read-out: TGI) of over 100 µM. For the same compound, the GI50 ([3]; read-out: pGI50 (converted)) was 0.813 µM, the CC50 [3, 33] was over 100 µM and the TGI ([3]; read-out: pTGI) was over 100 µM. For the same compound, the TGI ([4]; read-out: TGI) was over 100 µM, the GI50 ([4]; read-out: pGI50 (converted)) was 1.32 µM and the CC50 [4, 33] was over 100 µM. For the same compound, the TGI ([4]; read-out: pTGI (converted)) was over 100 µM, the TGI ([5]; read-out: TGI) was 2.05 µM and the GI50 ([5]; read-out: pGI50 (converted)) was 0.661 µM. The CC50 [5, 33] was 5.13 µM, the TGI ([5]; read-out: pTGI (converted)) was 2.04 µM and the TGI ([6]; read-out: TGI) was 8.54 µM. The GI50 ([6]; read-out: pGI50 (converted)) was 3.09 µM, the CC50 [6, 33] was over 100 µM and the TGI ([6]; read-out: pTGI (converted)) was 8.51 µM. The TGI ([7]; read-out: TGI) was 5.89 µM, the GI50 ([7]; read-out: pGI50 (converted)) was 1.51 µM and the CC50 [7, 33] was 83.2 µM. The TGI ([7]; read-out: pTGI (converted)) was 5.89 µM, the TGI ([8]; read-out: TGI) was 3.33 µM and the GI50 ([8]; read-out: pGI50 (converted)) was 1.29 µM. It also gave a CC50 [8, 33] of 8.51 µM, a TGI ([8]; read-out: pTGI (converted)) of 3.31 µM and a growth at 0.01 µM [9] of 96%. For the same compound, the growth at 0.01 µM [10] was 92%, the growth at 0.01 µM [11] was 95% and the growth at 0.01 µM [12] was 99%. It also gave a growth at 0.01 µM [13] of 98%, a growth at 0.01 µM [14] of 97% and a growth at 0.01 µM [15] of 97%. For the same compound, the growth at 0.1 µM [16] was 95%, the growth at 0.1 µM [17] was 104% and the growth at 0.1 µM [18] was 96%. It also gave a growth at 0.1 µM [19] of 110%, a growth at 1 µM [20] of 46% and a growth at 1 µM [21] of 58%. It also gave a growth at 1 µM [22] of 48%, a growth at 1 µM [23] of 49% and a growth at 1 µM [24] of 90%. It also gave a growth at 1 µM [25] of 72%, a growth at 10 µM [26] of -24% and a growth at 10 µM [27] of -15%. It also gave a growth at 100 µM [28] of -54%, a growth at 100 µM [29] of -28% and a growth at 100 µM [30] of -24%. It also gave a growth at 100 µM [31] of -53%.
